In patent US20100087424A1, “TRICYCLIC NITROGEN CONTAINING HETEROCYCLES AS ANTIBACTERIAL AGENTS” (Glaxo Group Limited, priority 2007, published 2010) one finds MIC data, which are given here for three compounds.

Counter-ions that a name gives are not always drawn.

For this test, the system named is Mycobacterium tuberculosis H37Rv. As to the kind of experiment: Mycobacterium tuberculosis H37Rv Inhibition Assay (resazurin fluorescence). The following applies: ATCC 25618 / H37Rv, read-out: MIC value, H37Rv strain (ATCC25618), Middlebrook 7H9+ADC, six days at 37° C., resazurin read after 48 hours. The test is classed as cell-based. On the technique in general: The colour change of resazurin is a common sign of viable cells or microbes.
In general, MIC refers to the least concentration at which growth counts as inhibited. Turning to `O=c1ccc2ccc(F)c3c2n1[C@H](CN1CC[C@H](NCc2cc4c(cn2)OCCO4)[C@H](O)C1)CO3` [Example 20, (3R)-3-({(3R,4S)-4-[(2,3-Dihydro[1,4]dioxino[2,3-c]pyridin-7-ylmethyl)amino]-3-hydroxy-1-piperidinyl}methyl)-10-fluoro-2,3-dihydro-5H-[1,4]oxazino[2,3,4-ij]quinolin-5-one dihydrochloride], the MIC was no more than 2.8 µg/mL.
The same measure for `O=c1ccc2ncc(F)c3c2n1[C@H](CN1CC[C@H](NCc2cc4c(cn2)OCCO4)[C@H](O)C1)CC3` [Example 30, 6-({(3R,4S)-4-[(2,3-dihydro[1,4]dioxino[2,3-c]pyridin-7-ylmethyl)amino]-3-hydroxy-1-piperidinyl}methyl)-3-fluoro-5,6-dihydro-4H,8H-pyrido[3,2,1-de]-1,5-naphthyridin-8-one dihydrochloride]: no more than 2.8 µg/mL.
The same measure for `O=C(O)c1ccccc1.O=c1ccc2ncc(F)c3c2n1[C@H](CN1CCC(NCc2cc4c(nn2)OCCS4)CC1)CO3` [Example 48, (6R)-6-({4-[(6,7-dihydro[1,4]oxathiino[2,3-c]pyridazin-3-ylmethyl)amino]-1-piperidinyl}methyl)-3-fluoro-5,6-dihydro-8H-[1,4]oxazino[2,3,4-de]-1,5-naphthyridin-8-one benzoate]: no more than 2.8 µg/mL.
